Laboratory results: US9782424B2, “Synergistic combination comprising avermectins and a NSAID for tumor inhibition” (Ectin Research AB, priority 2011, dated 2017)

Columns and labels:
prostate cells (LNCaP) = assay: Morphology of cultured tumor cells, LNCaP; type: cell-based, human; details: for Effect on morphology: 24 hours (FIG. 8)
Experimental: (§1) Commercially available human tumor cell lines were purchased from ATCC (ATCC/LGC-standards, Borás, Sweden). […] Briefly, ampoules of frozen cells were thawed by submerging into a 37° C. water bath for 45 s. […] With supernatant discarded, cell pellets were further resuspended with 5 ml complete medium into 25 cm^2 cell culture flasks (Cell+, Sarstedt, Nümbrecht, Germany). Tumor cells were cultured until sub-confluence and further sub-cultured with Trypsin (0.5%), EDTA (0.2%) solution (T4174, TE-10x, Sigma) in sterile sodium chloride. Culture media was changed two-three times a week. Culture flasks (Cell+, Sarstedt, Nümbrecht, Germany) and culture plates (Falcon/BD, Franklin Lakes, N.J., USA) were used for experimental set-ups. Cells were regularly monitored using an inverted microscope connected to a digital photo equipment (Axiovert 25 and Axiovision, Zeiss, Carl Zeiss AG, Germany) (FIG. 1). Described culture techniques and equipment have been used extensively in the laboratory
The effect of Ivermectin, selamectin, abamectin alone, or in combination with ketoconazole, albendazole, ibuprofen, diclofenac and celecoxib on the morphology of cultured human tumor cells was studied. The effect of ivermectin in the presence of increasing concentration of ivermectin was also investigated. Cells were grown into sub-confluence and then sub-cultured into 12 and 24 well plates (Sarstedt, Falcon/BD) for morphology studies, or in 96 well plates (Sarstedt, Falcon/BD) for proliferation studies.

[1] = system: breast cell line (ZR-75-1); assay: XTT-assay proliferation rate, breast cell line; type: cell-based, human; details: for Proliferation rate in per cent compared to untreated medium control: 2R-75-1 breast Ca; for Proliferation rate compared to untreated control: ZR-75-1 (Table 6)
Experimental: as §1
The proliferation rates of the different human tumor cell lines were studied using a method based on the conversion of a sodium salt (XTT-assay, Sigma) into a stable orange color that could be analyzed in a spectrophotometer. […] The color change was measured using a 96-well plate reader with software to calculate the absorbance at 450 nm (V-max/Softmax Pro, Molecular Devices, USA).
Increasing concentrations of substance ivermectin was added with an 8-channel pipette (Titertek, Kem-En-Tec, Taastrup, Denmark) together with sterile pipette tips (Molecular Bioproducts, San Diego, Calif., USA). Cell cultures including active substances were incubated for 24 hours (and 96 hours). Untreated wells including culture medium only served as untreated controls. The XTT-assay substrate was added and after gentle agitation using a micro plate shaker, absorbencies at 450 and 650 nm were measured. Levels from medium were subtracted and compared with control wells, using culture medium only.

## 22,23-dihydroavermectin B1a+22,23-dihydroavermectin B1b [ivermectin]
Prostate cells (LNCaP); ivermectin 100 μM
  Effect on morphology: affected
Prostate cells (LNCaP); ivermectin 10e-4 to 10e-10 mol/L (FIG. 2)
  Morphological effects over the concentration series: affected by the highest concentration 10e-4 mol/L only
Prostate cells (LNCaP); ivermectin 1 and 10 μM
  Effect on morphology: No effect
[1]; ivermectin 10e-9 mol/L
  Proliferation rate in per cent compared to untreated medium control: 114 ± 31%
[1]; ivermectin 10e-8 mol/L
  Proliferation rate in per cent compared to untreated medium control: 128 ± 30%
[1]; ivermectin 10e-7 mol/L
  Proliferation rate in per cent compared to untreated medium control: 105 ± 35%
[1]; ivermectin 10e-6 mol/L
  Proliferation rate in per cent compared to untreated medium control: 95 ± 37%
[1]; ivermectin 10e-5 mol/L
  Proliferation rate in per cent compared to untreated medium control: 124 ± 34%
[1]; ivermectin 10e-4 mol/L
  Proliferation rate in per cent compared to untreated medium control: 7±2%
[1]; IVM 1 μmol/L alone
  Proliferation rate compared to untreated control: 90.0 ± 5.2%
[1]; IVM 10 μmol/L alone
  Proliferation rate compared to untreated control: 60.5 ± 10.6%
[1]; IVM 100 μmol/L alone
  Proliferation rate compared to untreated control: 14.4 ± 1.7%
[1]; ZR-75-1, ivermectin 100 μM alone or in combination
  Effect on proliferation rate compared to untreated control: reduced the proliferation rate
